Holding throughout (assay): agar diffusion, inhibition halo
What all share (format): cell-based
Background: A growth-free zone around the sample is the usual read-out of agar diffusion tests.

Experiment [1] deals with Geotrichum candidum CECT 1902. As to the method: (§1) In order to evaluate the antimicrobial activity the agar diffusion technique with cellulose discs of 6 mm in diameter impregnated with the different active ingredient testing doses was used.
(§2) Antifungal capacity was assessed against suspensions of […], harvested from pure cultures of the selected molds and against suspensions of 10^7 cells/ml for the case of yeasts. The culture medium used was the 2% Sabouraud-glucose medium (Merck).
(§3) After incubating the culture dishes inoculated with the different organisms at the corresponding temperatures, the microbial inhibition halos that appeared were measured, and said measurement includes the 6 mm diameter of the cellulose discs.

Experiment [2] concerns Penicillium italicum CECT 2294. The following applies: for zone of inhibition at 1000 µg/mL / zone of inhibition at 2000 µg/mL / zone of inhibition at 4000 µg/mL / zone of inhibition at 125 ppm / zone of inhibition at 250 ppm / zone of inhibition at 500 ppm / zone of inhibition at 1000 ppm: Penicillium italicum. Here is the method: as §1, §2, §3
Experiment [3] relates to Trichoderma aureoviride CECT 20102. As to the method:
as §1, §2, §3

Experiment [4] concerns Aspergillus niger, CECT 2700. As to the method:
as §1, §2, §3

In experiment [5] the test system is Aspergillus terreus, isolated from the environment of the cheese maturation chamber. Here is the method:
as §1, §2, §3

Experiment [6] has as its system Candida krusei, isolated from cheese. Here is the method: as §1, §2, §3
Experiment [7] concerns Penicillium sp, isolated from cheese. As to the method: as §1, §2, §3
The subject of experiment [8] is Bacillus cereus, CECT 1178. As to the method: as §1
(§4) Antibacterial capacity was assessed against suspensions of 10^6 cells/ml, prepared from pure young cultures of each one of the strains to be tested. The culture medium used was Müller-Hinton medium (Merck).
as §3

Experiment [9] relates to Bacillus subtilis, isolated from paprika. Here is the method:
as §1, §4, §3

Experiment [10] has as its system Escherichia coli, CECT 515. As to the method: as §1, §4, §3
For experiment [11], the system named is Listeria monocytogenes, ATCC 15313. Here is the method:
as §1, §4, §3

[12] abbreviates: CECT2294, 1000 ppm of commercial product, read-out: inhibition halo diameter.
Where [13] appears, read: CECT2294, 2000 ppm of commercial product, read-out: inhibition halo diameter.
The mark [14] stands for this setting: CECT2294, 4000 ppm of commercial product, read-out: inhibition halo diameter.
Setting [15] is: CECT2294, read-out: inhibition halo diameter.

Like-named read-outs stand apart in the source and are kept apart here.

Take `c1ccc2[nH]c(-c3cscn3)nc2c1` [Thiabendazole]: the inhibition halo diameter in experiment [1] (1000 ppm of commercial product) amounted to 0 mm; in [1] (2000 ppm of commercial product), 0 mm; in [1] (4000 ppm of commercial product), 0 mm; in experiment [3] (1000 ppm of commercial product) it was 24 mm; in [3] (2000 ppm of commercial product), 26 mm; in experiment [3] (4000 ppm of commercial product), 26 mm. Further, the zone of inhibition at 1000 µg/mL in experiment [2] (setting [12]) was over 40 mm. In experiment [2] (setting [13]), the zone of inhibition at 2000 µg/mL is over 40 mm. The zone of inhibition at 4000 µg/mL in experiment [2] (setting [14]) was over 40 mm.

In the case of `C=CCOC(Cn1ccnc1)c1ccc(Cl)cc1Cl` (stereo not drawn) [Imazalil], the inhibition halo diameter in experiment [1] (1000 ppm of commercial product) is recorded as 20 mm; in experiment [1] (2000 ppm of commercial product), 23 mm; in experiment [1] (4000 ppm of commercial product) it was 26 mm; in [3] (1000 ppm of commercial product), 20 mm; in experiment [3] (2000 ppm of commercial product), 25 mm; in experiment [3] (4000 ppm of commercial product), 31 mm. Besides, the zone of inhibition at 1000 µg/mL in experiment [2] (setting [12]) turned out to be 46 mm. Moreover, the zone of inhibition at 2000 µg/mL in [2] (setting [13]) was determined as 47 mm. In addition, the zone of inhibition at 4000 µg/mL in [2] (setting [14]) came out at 50 mm.

With `C=CC1SC=CCS1` (stereo not drawn) [2-vinyl-4H-1,3-dithiin], the inhibition halo diameter in experiment [4] (125 ppm) was determined as 7 mm; in experiment [4] (250 ppm) it was 7 mm; in experiment [4] (500 ppm), 10 mm; in experiment [4] (1000 ppm) it was 15 mm; in experiment [5] (125 ppm) it was 0 mm; in experiment [5] (250 ppm), 0 mm. The inhibition halo diameter in experiment [5] (500 ppm) was found to be 6 mm; in [5] (1000 ppm), 7 mm; in [6] (125 ppm) it was 7 mm; in experiment [6] (250 ppm), 10 mm; in [6] (500 ppm), 10 mm; in [6] (1000 ppm) it was 12 mm. The inhibition halo diameter in experiment [1] (125 ppm) is 7 mm; in experiment [1] (250 ppm), 7 mm; in experiment [1] (500 ppm), 10 mm; in [1] (1000 ppm), 15 mm; in experiment [7] (125 ppm), 0 mm; in experiment [7] (250 ppm), 8 mm. The inhibition halo diameter in experiment [7] (500 ppm) came out at 10 mm; in experiment [7] (1000 ppm), 12 mm; in [8] (125 ppm) it was 7 mm; in experiment [8] (250 ppm), 9 mm; in experiment [8] (500 ppm), 10 mm; in [8] (1000 ppm) it was 12 mm. Also, the inhibition halo diameter in [9] (125 ppm) was 7 mm; in [9] (250 ppm), 10 mm; in experiment [9] (500 ppm), 13 mm; in experiment [9] (1000 ppm) it was 15 mm; in experiment [10] (125 ppm), 0 mm; in [10] (250 ppm) it was 0 mm. Also, the inhibition halo diameter is 0 mm in experiment [10] (500 ppm); 0 mm in [10] (1000 ppm); 0 mm in [11] (125 ppm); 7 mm in experiment [11] (250 ppm); 8 mm in experiment [11] (500 ppm); 10 mm in experiment [11] (1000 ppm). For the same compound, the zone of inhibition at 125 ppm in [2] (setting [15]) came to 0 mm. The zone of inhibition at 250 ppm in [2] (setting [15]) was 0 mm. In addition, in [2] (setting [15]), the zone of inhibition at 500 ppm is 8 mm. The zone of inhibition at 1000 ppm in experiment [2] (setting [15]) came to 10 mm.

Consider `C=CCSSC=CC[S+]([O-])CC=C` (mixture of isomers) [Ajoene, (E)-(Z)-ajoene], for which the inhibition halo diameter is 11 mm in [4] (125 ppm); 13 mm in experiment [4] (250 ppm); 24 mm in experiment [4] (500 ppm); 27 mm in [4] (1000 ppm); 18 mm in experiment [5] (125 ppm); 21 mm in experiment [5] (250 ppm). Moreover, the inhibition halo diameter in experiment [5] (500 ppm) is listed as 32 mm; in [5] (1000 ppm) it was 40 mm; in [6] (125 ppm), 26 mm; in [6] (250 ppm) it was 32 mm; in experiment [6] (500 ppm) it was 38 mm; in experiment [6] (1000 ppm), 42 mm. In addition, the inhibition halo diameter in experiment [1] (125 ppm) is recorded as 14 mm; in experiment [1] (250 ppm), 20 mm; in [1] (500 ppm), 26 mm; in experiment [1] (1000 ppm), 34 mm; in experiment [7] (125 ppm), 12 mm; in [7] (250 ppm), 27 mm. The inhibition halo diameter in [7] (500 ppm) stood at 40 mm; in [7] (1000 ppm) it was 40 mm; in experiment [8] (125 ppm) it was 18 mm; in [8] (250 ppm), 24 mm; in experiment [8] (500 ppm), 30 mm; in [8] (1000 ppm), 36 mm. Further, the inhibition halo diameter in experiment [9] (125 ppm) is listed as 36 mm; in experiment [9] (250 ppm), 40 mm; in experiment [9] (500 ppm), 54 mm; in experiment [9] (1000 ppm), 62 mm; in [10] (125 ppm), 7 mm; in [10] (250 ppm) it was 9 mm. The inhibition halo diameter in experiment [10] (500 ppm) is listed as 11 mm; in [10] (1000 ppm) it was 13 mm; in experiment [11] (125 ppm), 16 mm; in experiment [11] (250 ppm), 18 mm; in experiment [11] (500 ppm) it was 20 mm; in experiment [11] (1000 ppm), 30 mm. Besides, the zone of inhibition at 125 ppm in experiment [2] (setting [15]) was 18 mm. In addition, the zone of inhibition at 250 ppm in experiment [2] (setting [15]) was found to be 24 mm. Moreover, the zone of inhibition at 500 ppm in experiment [2] (setting [15]) worked out at 44 mm. For the same compound, the zone of inhibition at 1000 ppm in experiment [2] (setting [15]) is 50 mm.

On to `CCCN(CCOc1c(Cl)cc(Cl)cc1Cl)C(=O)n1ccnc1` [Prochloraz], for which the inhibition halo diameter in experiment [1] (1000 ppm of commercial product) is 0 mm; in experiment [1] (2000 ppm of commercial product) it was 0 mm; in experiment [1] (4000 ppm of commercial product) it was 0 mm; in experiment [3] (1000 ppm of commercial product), 8 mm; in experiment [3] (2000 ppm of commercial product) it was 11 mm; in experiment [3] (4000 ppm of commercial product), 12 mm. The zone of inhibition at 1000 µg/mL in experiment [2] (setting [15]) was 31 mm. Also, the zone of inhibition at 2000 µg/mL in [2] (setting [15]) was 35 mm. Moreover, the zone of inhibition at 4000 µg/mL in experiment [2] (setting [15]) is 35 mm.

Consider `C=CC1CC=CSS1` (stereo not drawn) [3-vinyl-4H-1,2-dithiin], for which the inhibition halo diameter in experiment [4] (125 ppm) is reported as 0 mm; in experiment [4] (250 ppm), 7 mm; in experiment [4] (500 ppm), 10 mm; in experiment [4] (1000 ppm), 14 mm; in experiment [5] (125 ppm) it was 0 mm; in experiment [5] (250 ppm) it was 0 mm. Besides, the inhibition halo diameter in [5] (500 ppm) is listed as 0 mm; in experiment [5] (1000 ppm), 0 mm; in experiment [6] (125 ppm), 0 mm; in experiment [6] (250 ppm), 7 mm; in [6] (500 ppm), 8 mm; in experiment [6] (1000 ppm) it was 10 mm. For the same compound, the inhibition halo diameter in experiment [1] (125 ppm) turned out to be 0 mm; in experiment [1] (250 ppm), 0 mm; in [1] (500 ppm), 0 mm; in experiment [1] (1000 ppm) it was 0 mm; in [7] (125 ppm), 0 mm; in experiment [7] (250 ppm) it was 6 mm. Further, the inhibition halo diameter in [7] (500 ppm) is 7 mm; in experiment [7] (1000 ppm) it was 10 mm; in experiment [8] (125 ppm) it was 7 mm; in experiment [8] (250 ppm), 8 mm; in experiment [8] (500 ppm), 8 mm; in [8] (1000 ppm), 10 mm. Moreover, the inhibition halo diameter in [9] (125 ppm) was 8 mm; in [9] (250 ppm) it was 9 mm; in experiment [9] (500 ppm) it was 10 mm; in experiment [9] (1000 ppm) it was 12 mm; in [10] (125 ppm) it was 0 mm; in [10] (250 ppm), 0 mm. Also, the inhibition halo diameter in experiment [10] (500 ppm), in experiment [10] (1000 ppm), in experiment [11] (125 ppm), in experiment [11] (250 ppm), in [11] (500 ppm) and in experiment [11] (1000 ppm) was 0 mm in each case. In experiment [2] (setting [15]), the zone of inhibition at 125 ppm was found to be 0 mm. The zone of inhibition at 250 ppm in [2] (setting [15]) came out at 0 mm. The zone of inhibition at 500 ppm in experiment [2] (setting [15]) was determined as 0 mm. Besides, in experiment [2] (setting [15]), the zone of inhibition at 1000 ppm is 0 mm.

Guazatine: the inhibition halo diameter in [1] (1000 ppm of commercial product) was 27 mm; in experiment [1] (2000 ppm of commercial product) it was 30 mm; in [1] (4000 ppm of commercial product) it was 35 mm; in experiment [2] (1000 ppm of commercial product), 10 mm; in experiment [2] (2000 ppm of commercial product), 12 mm; in experiment [2] (4000 ppm of commercial product) it was 15 mm. The inhibition halo diameter in experiment [3] (1000 ppm of commercial product) turned out to be 25 mm; in experiment [3] (2000 ppm of commercial product), 30 mm; in experiment [3] (4000 ppm of commercial product), 35 mm.

Source of the values: patent US20070160725A1, “Use of extracts and compounds of allium-genus plants as preservatives in the food and agri-food industries” (MOUSALA, S., L., priority 2004, published 2007).
